Common to all, as to assay: growth of human tumour cells (NCI), 48 h
Assay [1] relates to DU-145 prostate.
In assay [2] the test system is COLO 205 colon.
Assay [3] concerns SR leukemia.
For assay [4], the system named is PC-3 prostate.
Assay [5] concerns MDA-MB-231 breast.
In assay [6] the test system is UACC-257 melanoma.
Assay [7] has as its system 786-0 renal.
Assay [8] concerns OVCAR-5 ovarian.
In assay [9] the test system is U251 CNS.
For assay [10], the system named is ACHN renal.
For assay [11], the system named is LOX IMVI melanoma.
For assay [12], the system named is SN12C renal.
Assay [13] deals with NCI-H23 lung.
The test system of assay [14] is SK-OV-3 ovarian.
Assay [15] has as its system HT29 colon.
For assay [16], the system named is MDA-MB-435.
The test system of assay [17] is SNB-19 CNS.
Assay [18] has as its system HCC-2998 colon.
The test system of assay [19] is A549 NSCLC.

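Step 1: Grow cells in 96-well plates. Step 2: Expose to compound for 48 hours at 5 concentrations. Step 3: Interpolate endpoints linearly; if unreached, use highest concentration. At the TGI there is no net growth.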 A value given as a limit tells only on which side of the number the result lay.

On to `O=C(Oc1cccnc1)c1cc2cc(CCl)ccc2oc1=O`, for which the TGI in [1] is 39.5 µM; in assay [2], 69.5 µM; in assay [3], 73.6 µM; in assay [4], 32.9 µM; in assay [5], 43.2 µM; in [6] it was 98.7 µM. For the same compound, the TGI is 36.1 µM in assay [7]; 64.6 µM in assay [8]; 57.2 µM in assay [9]; over 100 µM in assay [10]; 44.7 µM in assay [11]; 50.1 µM in assay [12]. For the same compound, the TGI in [13] was 39.5 µM; in [14], over 100 µM; in assay [15], 39.9 µM; in assay [16], 73 µM; in [17], over 100 µM; in [18] it was over 100 µM. Besides, the TGI in [19] was over 100 µM.

As to `CCC(C)C1NC(=O)C(NC(=O)c2c3[nH]c4c(C(=O)NC5C(=O)NC(C(C)CC)C(=O)N6CCCC6C(=O)N(C)CC(=O)N(C)C(C(C)C)C(=O)OC5C)ccc(C)c4oc-3c(C)c(=O)c2=O)C(C)OC(=O)C(C(C)C)N(C)C(=O)CN(C)C(=O)C2CCCN2C1=O` (stereo not drawn), the TGI in assay [1] is over 78 µM; in assay [2], 13.4 µM; in assay [3] it was 4 µM; in assay [4] it was over 100 µM; in [5], 55.2 µM; in [6] it was 38.6 µM. In addition, the TGI is over 79.9 µM in assay [7]; over 100 µM in assay [8]; over 100 µM in [9]; 65.2 µM in assay [10]; over 53.4 µM in assay [11]; over 100 µM in assay [12]. For the same compound, the TGI was 45.3 µM in assay [13]; over 100 µM in assay [14]; 29.2 µM in assay [15]; over 71.6 µM in [16]; over 100 µM in assay [17]; 27.7 µM in assay [18]. In assay [19], this compound showed a TGI of over 100 µM.

`CC(=O)O/C(=C1\C[C@H]2[C@@H]3CC=C4C[C@@H](OC(C)=O)CC[C@]4(C)[C@H]3CC[C@]2(C)C1=O)C(F)(F)F`: the TGI in [1] is 25.2 µM; in assay [2] it was 25.7 µM; in [3] it was 10.9 µM; in assay [4], 27.3 µM; in assay [5], 27.6 µM; in assay [6], 15.1 µM. Also, the TGI in [7] was found to be 20.6 µM; in [8], 58.6 µM; in assay [9], 17.7 µM; in assay [10], 48 µM; in [11], 5.17 µM; in assay [12] it was 24.1 µM. Moreover, the TGI in assay [13] came out at 18.3 µM; in assay [14] it was 44.5 µM; in [15], 29.2 µM; in assay [16] it was 16.4 µM; in assay [17] it was 40.6 µM; in assay [18], 19 µM. In assay [19], this compound had a TGI of 36.8 µM.

Consider `[N-]=[N+]=NC1C(O)C(CO)OC1n1ccc(=O)[nH]c1=O` (stereo not drawn), for which the TGI in assay [1], in assay [2], in [3], in assay [4], in assay [5] and in assay [6] was over 875 µM each time. Also, the TGI in assay [7], in assay [8], in [9], in [10], in [11] and in assay [12] was over 875 µM each time. The TGI in assay [13], in [14], in assay [15], in assay [16], in assay [17] and in assay [18] was over 875 µM each time. In [19], this compound registered a TGI of over 875 µM.

Regarding `CN1C(=O)c2ccccc2OC12C=Cc1ccc(O)cc1O2` (stereo not drawn), the TGI in [1] is 69.7 µM; in [2], 65.1 µM; in assay [3], 27.4 µM; in [4], 59.2 µM; in assay [5], 82.1 µM; in [6], 43.6 µM. For the same compound, the TGI in assay [7] is over 100 µM; in [8] it was over 100 µM; in assay [9] it was over 100 µM; in [10] it was over 100 µM; in assay [11] it was 26.8 µM; in [12], over 100 µM. Moreover, the TGI is over 100 µM in [13]; 53.5 µM in [14]; 57.2 µM in assay [15]; 85.3 µM in assay [16]; over 100 µM in assay [17]; 50.8 µM in [18]. In assay [19], the TGI is over 100 µM.

On to `O=C(c1ccccc1)c1c(-c2ccccc2)n(-c2ccccc2)[nH]c(=O)c1=O`, for which the TGI in [1] was over 100 µM; in assay [2], over 100 µM; in [3], over 100 µM; in assay [4] it was 32.9 µM; in assay [5] it was 84.9 µM; in [6] it was over 100 µM. The TGI in assay [7], in assay [8], in [9], in assay [10], in [11] and in assay [12] was over 100 µM each time. The TGI in [13], in assay [14], in assay [15], in assay [16], in [17] and in assay [18] was over 100 µM in each case. The same compound gave a TGI in assay [19] of over 100 µM.

Regarding `CC(=O)Oc1ccc2c(c1)c1c(=O)oc(C)nc1n2Cc1ccccc1`, the TGI in [1], in assay [2], in assay [3], in assay [4], in assay [5] and in [6] was over 100 µM each time. Moreover, the TGI in assay [7], in assay [8], in [9], in [10], in assay [11] and in assay [12] was over 100 µM in each case. Further, the TGI is over 100 µM in [13]; 98.6 µM in assay [14]; over 100 µM in assay [15]; 99.4 µM in [16]; over 100 µM in assay [17]; over 100 µM in assay [18]. The compound further displayed a TGI in assay [19] of over 100 µM.

With `CN(C)c1ccc(/C=N\NC(=O)Nc2cccc3ccccc23)cc1`, the TGI in [1] is 30.9 µM; in assay [2], over 100 µM; in assay [3], over 100 µM; in assay [4], 35.5 µM; in assay [5], 32.9 µM; in [6], 34.6 µM. Besides, the TGI in assay [7] is 51.5 µM; in assay [8], over 100 µM; in [9], 39.5 µM; in [10] it was 38.5 µM; in assay [11], 22.1 µM; in assay [12], 31.4 µM. Further, the TGI in assay [13] was 76 µM; in assay [15], over 100 µM; in assay [16], 48.3 µM; in [17], 7.5 µM; in assay [18], over 100 µM; in assay [19], over 100 µM.

`Cc1nc2ccc(NC(=S)Nc3ccccc3)cc2c(=O)n1-c1ccccc1`: the TGI in assay [1], in assay [2], in [3], in [4], in assay [5] and in [6] was over 100 µM in each case. Moreover, the TGI in assay [7], in assay [8], in assay [9], in assay [10], in assay [11] and in assay [12] was over 100 µM each time. Also, the TGI in assay [13], in [15], in assay [16], in assay [17] and in assay [18] was over 100 µM each time.

With `CC1C[C@]2(C)C(=NCCN)Nc3ccccc3[C@@H]2N(C)c2ccccc21` (stereo partly drawn), the TGI in assay [1] was found to be 28.7 µM; in assay [2], 5.14 µM; in assay [3], 8.73 µM; in [4] it was 26.6 µM; in assay [5] it was 21.1 µM; in assay [6], 14.8 µM. The TGI was 24.6 µM in [7]; 27.4 µM in assay [8]; 29.9 µM in assay [10]; 28.2 µM in assay [11]; 28.4 µM in assay [12]; 31.4 µM in [13]. For the same compound, the TGI came out at 13.2 µM in assay [15]; 22.7 µM in assay [16]; 27.7 µM in [17]; 9.69 µM in assay [18]; 31.6 µM in assay [19].

As to `COc1cccc2cc(C(=O)O)c(=O)oc12`, the TGI in [1], in [2], in [3], in assay [4], in [5] and in assay [6] was over 100 µM in each case. Also, the TGI in assay [7], in assay [8], in [9], in assay [10], in assay [11] and in [12] was over 100 µM in each case. Also, the TGI in assay [13], in [15], in assay [16], in assay [17], in assay [18] and in assay [19] was over 100 µM throughout.

Take `C=C(C(=O)O)[C@@H]1C[C@@H](OC(C)=O)[C@]2(C)CC/C=C(\C)CCC[C@H](C)[C@H](O)[C@@H]1O2`: the TGI was over 100 µM in [1]; over 100 µM in assay [2]; 65.1 µM in assay [3]; over 100 µM in assay [4]; over 100 µM in assay [5]; over 100 µM in assay [6]. Moreover, the TGI in assay [7], in [8], in [9], in assay [10], in assay [11] and in [12] was over 100 µM throughout. In addition, the TGI in [14] is over 100 µM; in assay [15], over 100 µM; in assay [16], 59.1 µM; in [18], over 100 µM; in assay [19], over 100 µM.

Turning to `CC(CO)CCNc1ncnc2c1ncn2CCC(=O)OC(C)(C)C` (stereo not drawn), the TGI in assay [1], in assay [2], in assay [3], in [4], in assay [5] and in [6] was over 100 µM throughout. Further, the TGI in [7], in assay [8], in assay [10], in [11], in assay [12] and in assay [13] was over 100 µM throughout. Moreover, the TGI in assay [14], in assay [15], in [16], in assay [17], in [18] and in assay [19] was over 100 µM in each case.

In the case of `Cc1cn(C2CC(O)C(CO[Si](C)(C)C(C)(C)C)OC2OC(C)C)c(=O)[nH]c1=O` (stereo not drawn), the TGI in assay [1] is over 100 µM; in assay [2], 48.9 µM; in assay [3] it was 62.4 µM; in [4], over 100 µM; in assay [5] it was over 100 µM; in assay [6], over 100 µM. In addition, the TGI is 31.6 µM in assay [7]; over 100 µM in assay [8]; over 100 µM in [9]; over 100 µM in [10]; 32.5 µM in [11]; over 100 µM in assay [12]. Also, the TGI in [13] was over 100 µM; in assay [15], 44.1 µM; in assay [16], over 100 µM; in assay [17] it was over 100 µM; in assay [18], 62.7 µM; in [19] it was over 100 µM.

For the compound `COc1ccc(-c2nc(-c3cc4c(ccc5ccccc54)oc3=O)cs2)cc1`, the TGI in assay [1], in assay [2], in [3], in assay [4], in [5] and in assay [6] was over 100 µM throughout. Also, the TGI in [7] is 82 µM; in assay [8] it was over 100 µM; in assay [10], over 100 µM; in [11], over 100 µM; in [12], over 100 µM; in [14], over 100 µM. Further, the TGI in assay [15], in [16], in [17], in [18] and in [19] was over 100 µM in each case.

For the origin of these results see PubChem BioAssay (NCI).
